From the supplement of paper PMC10307832

compound: Cc1cc([C@@H](C)Nc2ccccc2C(=O)O)c2nc(N3CCOCC3)cc(=O)n2c1 [AZD6482] + Cc1cc(Nc2cc(N3CCN(C)CC3)nc(Sc3ccc(NC(=O)C4CC4)cc3)n2)n[nH]1 [Tozasertib] (partner 0.1 µM); experiment: relative viability (nuclei count vs DMSO), 5 days (fraction); higher = more cells survive; details: first compound 8 µM
Method in brief: (§1)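 Lung cancer cell lines were seeded in 1536-well plates and dosed by pin tool the next day, with either a single drug or a fixed anchor-drug dose combined with five library-drug doses (not always all listed) spaced in √10 steps. Five days later, one step fixed the cells and stained their nuclei (final 0.05% Triton X-100, 1% formaldehyde, 1 ug/ml Hoechst), and nuclei were counted on 4× images. Relative viability is the nuclei count in treated wells divided by the count in vehicle wells, and each value is the median of duplicate plates.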

Cell Line	relative viability
NCI-H1437	0.254
NCI-H1755	0.519
NCI-H2023	0.279
HCC-15	0.293
NCI-H1793	0.15
PC-14	0.524
EKVX	0.202
LC-2-ad	0.379
NCI-H1944	0.189
NCI-H1975	0.463
RERF-LC-KJ	0.388
ABC-1	0.216
NCI-H358	0.0946
NCI-H650	0.443
PC-3 [JPC-3]	0.823

compound: COc1cc2nc(N3CCCN(C)CC3)nc(NC3CCN(Cc4ccccc4)CC3)c2cc1OC + O=C(CCCCCCC(=O)Nc1ccccc1)NO [Vorinostat] (partner 1 µM); experiment: as above; details: first compound 0.2 µM
Method in brief: as §1

Cell Line	relative viability
NCI-H441	0.77
NCI-H661	0.763
NCI-H1734	0.813
NCI-H460	0.834
NCI-H2347	0.712
SK-LU-1	0.832
NCI-H1395	0.617
201T	0.968
NCI-H1915	0.506
HCC-827	0.899
LXF-289	0.722
NCI-H23	0.571
NCI-H647	0.588
CAL-12T	0.558
NCI-H1651	0.56
EPLC-272H	0.423
NCI-H2228	0.37

Cell Line	relative viability
NCI-H1355	0.654
NCI-H3122	1.04
NCI-H1437	0.871
NCI-H1755	0.777
NCI-H2023	0.565
HCC-15	0.85
NCI-H1793	0.692
PC-14	0.674
EKVX	0.703
LC-2-ad	0.679
NCI-H1944	0.58
NCI-H1975	0.397
RERF-LC-KJ	0.61
ABC-1	0.959
NCI-H358	0.746
NCI-H650	0.573
PC-3 [JPC-3]	0.625

same assay, conditions: first compound 0.6325 µM

Cell Line	relative viability
NCI-H441	0.647
NCI-H661	0.774
NCI-H1734	0.76
NCI-H460	0.72
NCI-H2347	0.725
SK-LU-1	0.747
NCI-H1395	1.24
201T	0.983
NCI-H1915	0.426
HCC-827	0.786
LXF-289	0.783
NCI-H23	0.597
NCI-H647	0.669
CAL-12T	0.626
NCI-H1651	0.617
EPLC-272H	0.4
NCI-H2228	0.662

Cell Line	relative viability
NCI-H1355	0.618
NCI-H3122	1.04
NCI-H1437	0.778
NCI-H1755	0.67
NCI-H2023	0.63
HCC-15	0.884
NCI-H1793	1.06
PC-14	0.674
EKVX	0.721
LC-2-ad	0.716
NCI-H1944	0.597
NCI-H1975	0.677
RERF-LC-KJ	0.704
ABC-1	1.23
NCI-H358	0.663
NCI-H650	0.391
PC-3 [JPC-3]	0.926

same assay, conditions: first compound 2 µM

Cell Line	relative viability
NCI-H441	0.927
NCI-H661	0.833
NCI-H1734	0.778
NCI-H460	0.659
NCI-H2347	0.51
SK-LU-1	0.844
NCI-H1395	0.896
201T	0.952
NCI-H1915	0.514
HCC-827	0.784
LXF-289	0.796
NCI-H23	0.576
NCI-H647	0.614
CAL-12T	0.925
NCI-H1651	0.561
EPLC-272H	0.38
NCI-H2228	0.54

Cell Line	relative viability
NCI-H1355	0.724
NCI-H3122	0.921
NCI-H1437	0.982
NCI-H1755	0.759
NCI-H2023	0.509
HCC-15	0.909
NCI-H1793	0.871
PC-14	0.625
EKVX	0.541
LC-2-ad	0.763
NCI-H1944	0.512
NCI-H1975	0.797
RERF-LC-KJ	0.703
ABC-1	1.13
NCI-H358	0.754
NCI-H650	0.475
PC-3 [JPC-3]	0.781

same assay, conditions: first compound 6.325 µM

Cell Line	relative viability
NCI-H441	0.862
NCI-H661	0.807
NCI-H1734	0.717
NCI-H460	0.603
NCI-H2347	0.504
SK-LU-1	0.641
NCI-H1395	0.491
201T	0.939
NCI-H1915	0.472
HCC-827	0.826
LXF-289	0.654
NCI-H23	0.471
NCI-H647	0.24
CAL-12T	0.767
NCI-H1651	0.548
EPLC-272H	0.335
NCI-H2228	0.25
NCI-H1355	0.605
NCI-H3122	0.937
NCI-H1437	0.734
NCI-H1755	0.573
NCI-H2023	0.0993
HCC-15	0.81
NCI-H1793	0.638
PC-14	0.0432
EKVX	0.722
